Measurements taken from ChEMBL document CHEMBL1123398, “Conformationally restricted inhibitors of angiotensin converting enzyme: synthesis and computations” (J Med Chem, 1986).

What was measured:
[1] = target: T1, Angiotensin-converting enzyme (Homo sapiens, UniProt P12821); test: Inhibitory concentration (isomer A) against Angiotensin I converting enzyme
[2] = target: T1, Angiotensin-converting enzyme; test: Inhibitory concentration (isomer B) against Angiotensin I converting enzyme
[3] = target: T1, Angiotensin-converting enzyme; test: Inhibitory concentration against Angiotensin I converting enzyme
[4] = target: T1, Angiotensin-converting enzyme; test: Inhibitory concentration against Angiotensin I converting enzyme; IA is Inactive with 0% inhibition at 3.3 x 10e-4;

T1 sequence (P12821 whole entry): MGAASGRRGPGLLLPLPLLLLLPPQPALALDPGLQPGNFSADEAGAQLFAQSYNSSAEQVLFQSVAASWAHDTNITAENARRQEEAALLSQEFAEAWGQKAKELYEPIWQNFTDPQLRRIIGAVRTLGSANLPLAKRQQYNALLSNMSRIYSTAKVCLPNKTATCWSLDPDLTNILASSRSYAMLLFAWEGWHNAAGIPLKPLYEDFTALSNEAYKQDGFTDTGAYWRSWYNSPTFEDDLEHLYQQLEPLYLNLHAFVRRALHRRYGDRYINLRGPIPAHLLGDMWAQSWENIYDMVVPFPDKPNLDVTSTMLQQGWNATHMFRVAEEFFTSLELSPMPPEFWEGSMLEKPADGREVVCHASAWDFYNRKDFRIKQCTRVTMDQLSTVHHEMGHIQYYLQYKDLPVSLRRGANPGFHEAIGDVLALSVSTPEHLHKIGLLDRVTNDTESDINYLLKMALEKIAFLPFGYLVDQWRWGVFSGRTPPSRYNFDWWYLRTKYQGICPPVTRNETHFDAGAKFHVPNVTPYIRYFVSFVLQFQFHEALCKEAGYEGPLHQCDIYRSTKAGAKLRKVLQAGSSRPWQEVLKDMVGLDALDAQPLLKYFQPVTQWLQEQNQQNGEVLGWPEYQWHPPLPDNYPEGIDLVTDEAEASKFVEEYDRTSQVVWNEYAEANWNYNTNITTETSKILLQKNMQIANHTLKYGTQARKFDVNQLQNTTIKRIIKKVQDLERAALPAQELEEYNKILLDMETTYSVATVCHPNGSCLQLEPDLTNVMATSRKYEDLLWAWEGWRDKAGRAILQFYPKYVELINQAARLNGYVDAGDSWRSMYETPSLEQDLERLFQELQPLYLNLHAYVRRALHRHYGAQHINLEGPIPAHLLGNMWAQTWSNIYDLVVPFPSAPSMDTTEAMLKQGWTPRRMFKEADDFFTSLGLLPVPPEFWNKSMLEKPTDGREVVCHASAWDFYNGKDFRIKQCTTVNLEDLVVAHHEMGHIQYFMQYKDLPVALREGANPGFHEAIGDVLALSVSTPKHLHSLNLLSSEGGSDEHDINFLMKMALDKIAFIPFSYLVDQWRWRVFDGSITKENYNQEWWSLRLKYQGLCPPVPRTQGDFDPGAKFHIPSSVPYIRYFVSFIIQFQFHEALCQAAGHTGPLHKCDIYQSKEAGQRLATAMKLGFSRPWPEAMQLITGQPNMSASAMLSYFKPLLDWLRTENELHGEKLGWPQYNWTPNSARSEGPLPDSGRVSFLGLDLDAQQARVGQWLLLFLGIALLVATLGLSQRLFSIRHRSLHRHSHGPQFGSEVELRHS

Row | Structure (SMILES) | IC50 [1] [µM] | IC50 [2] [µM] | IC50 [3] [µM] | IC50 [4]
1 | O=C(O)CN1CCCCCCC(NC(CCc2ccccc2)C(=O)O)C1=O (stereo unspecified) | 1.3 | 0.0081 | – | –
2 | O=C(O)CN1CCCCCC(NC(CCc2ccccc2)C(=O)O)C1=O (stereo unspecified) | 1.7 | 0.0048 | – | –
3 | O=C(O)CN1CCCCC[C@H](N[C@@H](CCc2ccccc2)C(=O)O)C1=O | – | 0.002 | – | –
4 | NC1CCCCCN(CC(=O)O)C1=O (stereo unspecified) | – | – | 440 | –
5 | NC1CCN(CC(=O)O)C1=O (stereo unspecified) | – | – | – | Not Active
6 | NC1CCCN(CC(=O)O)C1=O (stereo unspecified) | – | – | 1700 | –
7 | NC1CCCCN(CC(=O)O)C1=O (stereo unspecified) | – | – | 480 | –

The next lines start with the values.

Row | IC50 [1] [µM] | IC50 [2] [µM] | IC50 [3] [µM] | IC50 [4] | Structure (SMILES)
8 | 0.43 | 1.7 | – | – | O=C(O)CN1CCCC(NC(CCc2ccccc2)C(=O)O)C1=O (stereo unspecified)
9 | 12 | 19 | – | – | O=C(O)CN1CCC(NC(CCc2ccccc2)C(=O)O)C1=O (stereo unspecified)
10 | – | 0.092 | – | – | O=C(O)CN1CCCCC[C@@H](N[C@H](CCc2ccccc2)C(=O)O)C1=O
11 | 0.7 | 0.019 | – | – | O=C(O)CN1CCCCC(NC(CCc2ccccc2)C(=O)O)C1=O (stereo unspecified)
